{"source": "patent US20250098679A1", "about": "“HERBICIDAL PYRIDONE DERIVATIVES” (SYNGENTA CROP PROTECTION AG, priority 2021, published 2025)", "type_in_all_cases": "in vivo", "key": {"Setaria faberi (SETFA)": {"system": "Setaria faberi (SETFA)", "assay": "Post-emergence Test, Setaria faberi (SETFA)", "design": "key to percentage damage caused to the plant, SETFA (five-point scale): 5=81-100%, 4=61-80%, 3=41-60%, 2=21-40%, 1=0-20% damage", "settings": "1000 g/ha, evaluated after 13 days", "method_in_brief": "(§1)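 Application was a spray of acetone/water (50:50) with 0.5% Tween 20 onto pots of test species sown in standard soil. Unless otherwise stated, the rate was 1000 g/ha. After 13 days under glasshouse conditions (24/16 °C, 65% humidity), injury was scored from 1 (0-20%) to 5 (81-100%).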"}, "[1]": {"system": "Amaranthus palmeri (AMAPA)", "assay": "Pre-emergence Test, Amaranthus palmeri (AMAPA)", "settings": "evaluated after 13 days"}, "[2]": {"system": "Echinochloa crus-galli (ECHCG)", "assay": "Pre-emergence Test, Echinochloa crus-galli (ECHCG)", "settings": "evaluated after 13 days"}, "[3]": {"system": "Amaranthus retoflexus (AMARE)", "assay": "Post-emergence Test, Amaranthus retoflexus (AMARE)", "design": "key to percentage damage caused to the plant, AMARE (five-point scale): 5=81-100%, 4=61-80%, 3=41-60%, 2=21-40%, 1=0-20% damage", "settings": "evaluated after 13 days", "method_in_brief": "as §1"}, "[4]": {"system": "Amaranthus retoflexus (AMARE)", "assay": "Pre-emergence Test, Amaranthus retoflexus (AMARE)", "settings": "evaluated after 13 days"}, "[5]": {"system": "Amaranthus palmeri (AMAPA)", "assay": "Post-emergence Test, Amaranthus palmeri (AMAPA)", "design": "key: 5=81-100%, 4=61-80%, 3=41-60%, 2=21-40%, 1=0-20% damage", "settings": "evaluated after 13 days", "method_in_brief": "as §1"}, "Zea mays (ZEAMX) [6]": {"system": "Zea mays (ZEAMX)", "assay": "Post-emergence Test, Zea mays (ZEAMX)", "design": "key to percentage damage caused to the plant, ZEAMX (five-point scale): 5=81-100%, 4=61-80%, 3=41-60%, 2=21-40%, 1=0-20% damage", "settings": "evaluated after 13 days", "method_in_brief": "as §1"}, "Zea mays (ZEAMX) [7]": {"system": "Zea mays (ZEAMX)", "assay": "Pre-emergence Test, Zea mays (ZEAMX)", "settings": "evaluated after 13 days"}, "[8]": {"system": "Echinochloa crus-galli (ECHCG)", "assay": "Post-emergence Test, Echinochloa crus-galli (ECHCG)", "design": "key to percentage damage caused to the plant, ECHCG (five-point scale): 5=81-100%, 4=61-80%, 3=41-60%, 2=21-40%, 1=0-20% damage", "settings": "250 g/Ha, evaluated after 13 days", "method_in_brief": "as §1"}, "[9]": {"system": "Ipomoea hederacea (IPOHE)", "assay": "Post-emergence Test, Ipomoea hederacea (IPOHE)", "design": "key to percentage damage caused to the plant, IPOHE (five-point scale): 5=81-100%, 4=61-80%, 3=41-60%, 2=21-40%, 1=0-20% damage", "settings": "evaluated after 13 days", "method_in_brief": "as §1"}, "[10]": {"system": "Ipomoea hederacea (IPOHE)", "assay": "Pre-emergence Test, Ipomoea hederacea (IPOHE)", "settings": "evaluated after 13 days"}}, "data": [{"smiles": "CCn1c(Cn2ccc(OCC(F)(F)F)n2)cc(=O)c(C(=O)O)c1-c1ccc(Cl)c(Cl)c1", "note": "[Compound 185, 2-(3,4-dichlorophenyl)-1-ethyl-4-oxo-6-[[3-(2,2,2-trifluoroethoxy)pyrazol-1-yl]methyl]pyridine-3-carboxylic acid]", "values": [{"measurement": "percentage damage caused to the plant, SETFA (five-point scale)", "setting": "Setaria faberi (SETFA)", "result": "4 (4=61-80%)"}, {"measurement": "Pre-emergence Test AMAPA, percentage damage caused to the plant (five-point scale)", "setting": "[1]; 250 g/Ha (*)", "result": "1 (1=0-20%)"}, {"measurement": "Pre-emergence Test AMAPA, percentage damage caused to the plant (five-point scale)", "setting": "[1]; 1000 g/ha", "result": "2 (2=21-40%)"}, {"measurement": "Pre-emergence Test ECHCG, percentage damage caused to the plant (five-point scale)", "setting": "[2]; 250 g/Ha (*)", "result": "1 (1=0-20%)"}, {"measurement": "Pre-emergence Test ECHCG, percentage damage caused to the plant (five-point scale)", "setting": "[2]; 1000 g/ha", "result": "5 (5=81-100%)"}, {"measurement": "percentage damage caused to the plant, AMARE (five-point scale)", "setting": "[3]; 250 g/Ha", "result": "1 (1=0-20%)"}, {"measurement": "percentage damage caused to the plant, AMARE (five-point scale)", "setting": "[3]; 1000 g/ha", "result": "3 (3=41-60%)"}, {"measurement": "Pre-emergence Test AMARE, percentage damage caused to the plant (five-point scale)", "setting": "[4]; 250 g/Ha (*)", "result": "1 (1=0-20%)"}, {"measurement": "Pre-emergence Test AMARE, percentage damage caused to the plant (five-point scale)", "setting": "[4]; 1000 g/ha", "result": "3 (3=41-60%)"}, {"measurement": "percentage damage caused to the plant, AMAPA (five-point scale)", "setting": "[5]; 250 g/Ha", "result": "1 (1=0-20%)"}, {"measurement": "percentage damage caused to the plant, AMAPA (five-point scale)", "setting": "[5]; 1000 g/ha", "result": "3 (3=41-60%)"}, {"measurement": "percentage damage caused to the plant, ZEAMX (five-point scale)", "setting": "Zea mays (ZEAMX) [6]; 250 g/Ha", "result": "1 (1=0-20%)"}, {"measurement": "percentage damage caused to the plant, ZEAMX (five-point scale)", "setting": "Zea mays (ZEAMX) [6]; 1000 g/ha", "result": "4 (4=61-80%)"}, {"measurement": "Pre-emergence Test ZEAMX, percentage damage caused to the plant (five-point scale)", "setting": "Zea mays (ZEAMX) [7]; 250 g/Ha (*)", "result": 0}, {"measurement": "Pre-emergence Test ZEAMX, percentage damage caused to the plant (five-point scale)", "setting": "Zea mays (ZEAMX) [7]; 1000 g/ha", "result": "3 (3=41-60%)"}, {"measurement": "percentage damage caused to the plant, ECHCG (five-point scale)", "setting": "[8]", "result": "3 (3=41-60%)"}, {"measurement": "percentage damage caused to the plant, IPOHE (five-point scale)", "setting": "[9]; 250 g/Ha", "result": "3 (3=41-60%)"}, {"measurement": "percentage damage caused to the plant, IPOHE (five-point scale)", "setting": "[9]; 1000 g/ha", "result": "3 (3=41-60%)"}, {"measurement": "Pre-emergence Test IPOHE, percentage damage caused to the plant (five-point scale)", "setting": "[10]; 250 g/Ha (*)", "result": "1 (1=0-20%)"}, {"measurement": "Pre-emergence Test IPOHE, percentage damage caused to the plant (five-point scale)", "setting": "[10]; 1000 g/ha", "result": "3 (3=41-60%)"}]}, {"smiles": "CCn1c(Cn2nc(C(F)F)cc2C)cc(=O)c(C(=O)O)c1-c1ccc(Cl)c(Cl)c1", "note": "[Compound 187, 2-(3,4-dichlorophenyl)-6-[[3-(difluoromethyl)-5-methyl-pyrazol-1-yl]methyl]-1-ethyl-4-oxo-pyridine-3-carboxylic acid]", "values": [{"measurement": "percentage damage caused to the plant, SETFA (five-point scale)", "setting": "Setaria faberi (SETFA)", "result": "1 (1=0-20%)"}, {"measurement": "Pre-emergence Test AMAPA, percentage damage caused to the plant (five-point scale)", "setting": "[1]; 1000 g/ha", "result": 0}, {"measurement": "Pre-emergence Test ECHCG, percentage damage caused to the plant (five-point scale)", "setting": "[2]; 1000 g/ha", "result": "1 (1=0-20%)"}, {"measurement": "percentage damage caused to the plant, AMARE (five-point scale)", "setting": "[3]; 250 g/Ha", "result": 0}, {"measurement": "percentage damage caused to the plant, AMARE (five-point scale)", "setting": "[3]; 1000 g/ha", "result": "1 (1=0-20%)"}, {"measurement": "Pre-emergence Test AMARE, percentage damage caused to the plant (five-point scale)", "setting": "[4]; 1000 g/ha", "result": 0}, {"measurement": "percentage damage caused to the plant, AMAPA (five-point scale)", "setting": "[5]; 250 g/Ha", "result": 0}, {"measurement": "percentage damage caused to the plant, AMAPA (five-point scale)", "setting": "[5]; 1000 g/ha", "result": "1 (1=0-20%)"}, {"measurement": "percentage damage caused to the plant, ZEAMX (five-point scale)", "setting": "Zea mays (ZEAMX) [6]; 250 g/Ha", "result": 0}, {"measurement": "percentage damage caused to the plant, ZEAMX (five-point scale)", "setting": "Zea mays (ZEAMX) [6]; 1000 g/ha", "result": "1 (1=0-20%)"}, {"measurement": "Pre-emergence Test ZEAMX, percentage damage caused to the plant (five-point scale)", "setting": "Zea mays (ZEAMX) [7]; 1000 g/ha", "result": "1 (1=0-20%)"}, {"measurement": "percentage damage caused to the plant, ECHCG (five-point scale)", "setting": "[8]", "result": "2 (2=21-40%)"}, {"measurement": "percentage damage caused to the plant, IPOHE (five-point scale)", "setting": "[9]; 250 g/Ha", "result": "1 (1=0-20%)"}, {"measurement": "percentage damage caused to the plant, IPOHE (five-point scale)", "setting": "[9]; 1000 g/ha", "result": "4 (4=61-80%)"}, {"measurement": "Pre-emergence Test IPOHE, percentage damage caused to the plant (five-point scale)", "setting": "[10]; 1000 g/ha", "result": "3 (3=41-60%)"}]}, {"smiles": "CCn1c(Cn2nccc2COC)cc(=O)c(C(=O)O)c1-c1ccc(Cl)c(Cl)c1", "note": "[Compound 190, 2-(3,4-dichlorophenyl)-1-ethyl-6-[[5-(methoxymethyl)pyrazol-1-yl]methyl]-4-oxo-pyridine-3-carboxylic acid]", "values": [{"measurement": "percentage damage caused to the plant, SETFA (five-point scale)", "setting": "Setaria faberi (SETFA)", "result": "4 (4=61-80%)"}, {"measurement": "Pre-emergence Test AMAPA, percentage damage caused to the plant (five-point scale)", "setting": "[1]; 250 g/Ha (*)", "result": 0}, {"measurement": "Pre-emergence Test AMAPA, percentage damage caused to the plant (five-point scale)", "setting": "[1]; 1000 g/ha", "result": "1 (1=0-20%)"}, {"measurement": "Pre-emergence Test ECHCG, percentage damage caused to the plant (five-point scale)", "setting": "[2]; 250 g/Ha (*)", "result": "1 (1=0-20%)"}, {"measurement": "Pre-emergence Test ECHCG, percentage damage caused to the plant (five-point scale)", "setting": "[2]; 1000 g/ha", "result": "4 (4=61-80%)"}, {"measurement": "percentage damage caused to the plant, AMARE (five-point scale)", "setting": "[3]; 250 g/Ha", "result": "1 (1=0-20%)"}, {"measurement": "percentage damage caused to the plant, AMARE (five-point scale)", "setting": "[3]; 1000 g/ha", "result": "2 (2=21-40%)"}, {"measurement": "Pre-emergence Test AMARE, percentage damage caused to the plant (five-point scale)", "setting": "[4]; 250 g/Ha (*)", "result": 0}, {"measurement": "Pre-emergence Test AMARE, percentage damage caused to the plant (five-point scale)", "setting": "[4]; 1000 g/ha", "result": "1 (1=0-20%)"}, {"measurement": "percentage damage caused to the plant, AMAPA (five-point scale)", "setting": "[5]; 250 g/Ha", "result": "1 (1=0-20%)"}, {"measurement": "percentage damage caused to the plant, AMAPA (five-point scale)", "setting": "[5]; 1000 g/ha", "result": "1 (1=0-20%)"}, {"measurement": "percentage damage caused to the plant, ZEAMX (five-point scale)", "setting": "Zea mays (ZEAMX) [6]; 250 g/Ha", "result": 0}, {"measurement": "percentage damage caused to the plant, ZEAMX (five-point scale)", "setting": "Zea mays (ZEAMX) [6]; 1000 g/ha", "result": "3 (3=41-60%)"}, {"measurement": "Pre-emergence Test ZEAMX, percentage damage caused to the plant (five-point scale)", "setting": "Zea mays (ZEAMX) [7]; 250 g/Ha (*)", "result": "1 (1=0-20%)"}, {"measurement": "Pre-emergence Test ZEAMX, percentage damage caused to the plant (five-point scale)", "setting": "Zea mays (ZEAMX) [7]; 1000 g/ha", "result": "2 (2=21-40%)"}, {"measurement": "percentage damage caused to the plant, ECHCG (five-point scale)", "setting": "[8]", "result": "3 (3=41-60%)"}, {"measurement": "percentage damage caused to the plant, IPOHE (five-point scale)", "setting": "[9]; 250 g/Ha", "result": "1 (1=0-20%)"}, {"measurement": "percentage damage caused to the plant, IPOHE (five-point scale)", "setting": "[9]; 1000 g/ha", "result": "3 (3=41-60%)"}, {"measurement": "Pre-emergence Test IPOHE, percentage damage caused to the plant (five-point scale)", "setting": "[10]; 250 g/Ha (*)", "result": "1 (1=0-20%)"}, {"measurement": "Pre-emergence Test IPOHE, percentage damage caused to the plant (five-point scale)", "setting": "[10]; 1000 g/ha", "result": "3 (3=41-60%)"}]}]}
